Entries after “also recorded” stand apart in the source; their conditions may differ. Where two headings read alike, the source gives them in different places.
What was measured:
[1] = system: female Sprague-Dawley rats; test: Musical cue-induced reinstatement of cocaine seeking (Experiment 3); assay type: in vivo, rat; details: 18-MC 40 mg/kg i.p. 20 minutes prior to reinstatement test session, vs saline
Source text: Naïve female Sprague-Dawley rats (Taconic Germantown, N.Y.), weighing approximately 250 g at the start of the experiments, were housed individually in a temperature and humidity controlled colony room under a standard 12:12 light/dark cycle. Food and water were provided ad libitum. Protocols were designed and implemented in accordance with the “Guide for the Care and Use of Laboratory Animals” (1996) and were approved by the Institutional Animal Care and Use Committee of Albany Medical College. Rats were given one week of acclimation prior to experimental procedures.
Cocaine hydrochloride (˜0.4 mg/kg/infusion, Sigma-Aldrich, St. Louis, Mo.) was dissolved in 0.9% sodium chloride with a 2 mg/ml drug to saline ratio, and then brought to a neutral physiological pH before use in intravenous (i.v.) self-administration sessions. 18-MC (40 mg/kg, Obiter Research LLC. Champaign, Ill.) and saline were both administered intraperitoneally (i.p.). Animals were anesthetized with sodium pentobarbital (50 mg/kg, i.p.) for both intrajugular and microdialysis cannulation surgeries. Sodium methohexital (10 mg/kg) was used to verify catheter patency. All other reagents used in conjunction with microdialysis experiments were obtained from local suppliers and were of analytical grade.
Miles Davis' “Four” (Prestige Blue Haze, 1954) was the musical track used as a contextual cue in these experiments. The Miles Davis selection was chosen because it had been used successfully in past conditioning paradigms in our laboratory (Polston et al, 2011b). This musical selection was originally chosen because it has a repetitive beat and melody, helping to make it easily recognizable and identifiable. During drug training, self-administration, and applicable test sessions, “Four” was played on a continuous loop, at a volume staying between 65 and 75 decibels. This decibel range was chosen because it had been used successfully in past investigations involving rats and music (Feduccia et al, 2008; Otsuka et al, 2009; Polston et al, 2011b).
Experiments were conducted in rat operant conditioning chambers (ENV-009, Med Associates, St. Albans, Vt.) located within sound attenuated boxes outfitted with acoustical foam. The operant boxes were continuously ventilated with a house fan, and equipped with two retractable levers spaced approximately 20 cm apart on the front wall, with a house light mounted on the back wall of the test chamber. […] By operationally defining the floor (30.5 cm×31.8 cm) of the test chamber, and dividing it into three spatial zones, the program automatically generated detailed readings of the time spent in each zone in seconds and the distance that the animal traveled in meters. […] Videos were also periodically recorded and analyzed to ensure that Anymaze was functioning correctly. […]

rats [2] = details: cited from earlier work
[3] = in vivo, cited from earlier work
study animals [4] = details: cited from earlier work
study animals [5] = details: cited from earlier work; remark: listed apart in the source
rats [6] = details: compared to saline treated rats; cited from earlier work

Compound: COCC[C@H]1CC2CN3CCc4c([nH]c5ccccc45)[C@](C(=O)OC)(C2)[C@H]13 [18-MC, 18-Methoxycoronaridine]
- time spent in the inactive or back zones, reinstatement test session ([1]; inactive p=0.488, back p=0.082): no effect of Treatment
- active lever responses on the reinstatement test day ([1]; musical cue, p<0.001): significantly fewer active lever responses; also recorded: significantly attenuated responses
- time spent in the active zone, reinstatement test session ([1]; p<0.01): significant decrease; also recorded: significantly decreased
- locomotor activity on the reinstatement test day ([1]; p=0.143): no significant differences between groups; also recorded: produced no changes in locomotor activity
- nicotine, cocaine, morphine, methamphetamine, and ethanol self-administration (rats [2]): reduce
- acquisition of a cocaine conditioned place preference [3]: able to block the acquisition
- acquisition of a cocaine conditioned place preference ([3]; listed as 18MC): block acquisition
- effect on drug self-administration (study animals [4]; 10 μg administered into the interpeduncular nucleus): effective
- effect on drug self-administration (study animals [4]; 10 μg administered into the ventral tegmental area): no effect
- morphine, methamphetamine, and nicotine self-administration (study animals [4]; locally administered into the medial habenula): decreased
- sensitized dopamine responses in the nucleus accumbens (study animals [5]; local administration into both the medial habenula and the interpeduncular nucleus): produced similar results
- sensitized dopamine responses to both morphine and cocaine in the nucleus accumbens (study animals [5]; systemic 18-MC 40 mg/kg pretreatment 19 hours beforehand, chronic dosing models): abolished
- locomotor effects alone (rats [6]): produces no locomotor effects alone

Source: patent publication US20150051192A1, “BLOCKING OF CUE-INDUCED DRUG REINSTATEMENT” (ALBANY MEDICAL COLLEGE, priority 2012, published 2015)
